Consider 24 compounds from US20250345329A1, “HETEROARYL DERIVATIVE COMPOUND AND USES THEREOF” (VORONOI, INC., priority 2022, published 2025).

This experiment has as its system Ba/F3 expressing EGFR Del19/T790M/C797S mutations. The experiment in a line: Inhibitory activity on proliferation of Ba/F3 cell overexpressing EGFR C797S (Cell Titer-Glo). Format: cell-based. The conditions noted are these: Mus musculus, BaF3; 72 hours treatment, cell growth rate vs control; read-out: Ba/F3 (EGFR DTC) GI50. On the procedure:
<Experimental Example 2> Evaluation of Inhibitory Activity on Proliferation of Ba/F3 Cell Overexpressing EGFR C797S
The following experiments were performed to evaluate the inhibitory activity of the compounds according to the present invention on the proliferation of Ba/F3 expressing EGFR Del19/T790M/C797S mutations.
Ba/F3 cells were cultured in RPMI-1640 medium supplemented with 10% fetal bovine serum (FBS), and 3000 cells were seeded into each well of a white clear bottom 96 well plate (Corning) 24 hours prior to compound treatment. The compounds were diluted in dimethyl sulfoxide (3-fold dilution, total of 12 concentrations) and injected at 1 μl each so that the final concentration was […] to 5 μM. After 72 hours post treatment with compounds, living cells were reacted in a 37° C., CO2 incubator for […], followed by 10 minutes at room temperature using Cell Titer-Glo luminescent cell-viability reagent (Promega), and the luminescence intensity thereof was measured using a reader (SynergyNeo2, Biotek). The result values were calculated as a cell growth rate (%) compared to the control group. GI50 values were calculated using the GraphPad Prism version 8.4.3 (GraphPad software Inc., San Diego) program.
(Cellular ATP, detected with luciferase, serves as a proxy for viable cell number.)
`CO[C@H]1CCN(c2nccc(Nc3cc(NC(C)C)c(C(=O)N(C)CCN(C)C)cn3)n2)C[C@H]1F` (relative stereo) [Example 29, N-(2-(dimethylamino)ethyl)-6-((2-(cis-3-fluoro-4-methoxypiperidin-1-yl)pyrimidin-4-yl)amino)-4-(isopropylamino)-N-methylnicotinamide]: the GI50 lay within 500 to 5000 nM.

Turning to `COCCN(C)C(=O)c1cnc(Nc2ccnc(N3CC[C@H](OC)[C@H](F)C3)n2)cc1NC(C)C` (relative stereo) [Example 30, 6-((2-(cis-3-fluoro-4-methoxypiperidin-1-yl)pyrimidin-4-yl)amino)-4-(isopropylamino)-N-(2-methoxyethyl)-N-methylnicotinamide], the GI50 was in the range of 500 to 5000 nM.

Take `CO[C@H]1CCN(c2nccc(Nc3cc(NC(C)C)c(C(=O)Nc4cc(N5CCN(C)CC5)cc(C(F)(F)F)c4)cn3)n2)C[C@H]1F` [Example 24, 6-((2-(cis-3-fluoro-4-methoxypiperidin-1-yl)pyrimidin-4-yl)amino)-4-(isopropylamino)-N-(3-(4-methylpiperazin-1-yl)-5-(trifluoromethyl)phe-nyl)nicotinamide]: the GI50 lay in the range of 500 to 5000 nM.

On to `COCCN(C)C(=O)c1cnc(Nc2ccnc(-c3cnn(S(=O)(=O)C4CC4)c3)n2)cc1NC(C)C` [Example 27, 6-((2-(1-(cyclopropylsulfonyl)-1H-pyrazol-4-yl)pyrimidin-4-yl)amino)-4-(isopropylamino)-N-(2-methoxyethyl)-N-methylnicotinamide], for which the GI50 was in the range of 500 to 5000 nM.

In the case of `CO[C@H]1CCN(c2nccc(Nc3cc(NC(C)C)c(C(=O)Nc4cnn(S(=O)(=O)C5CC5)c4)cn3)n2)C[C@H]1F` [Example 33, N-(1-(cyclopropylsulfonyl)-1H-pyrazol-4-yl)-6-((2-(cis-3-fluoro-4-methoxypiperidin-1-yl)pyrimidin-4-yl)amino)-4-(isopropylamino)nico-tinamide], the GI50 lay in the range of 500 to 5000 nM.

For `CC(C)Nc1cc(Nc2ccnc(-c3cnn(C(=O)C4CC4)c3)n2)ncc1C(=O)NCC#N` [Example 87, N-(cyanomethyl)-6-((2-(1-(cyclo-propanecarbonyl)-1H-pyrazol-4-yl)pyrimidin-4-yl)amino)-4-(isopropylamino)nico-tinamide], the GI50 is 500 to 5000 nM.

`C[C@H]1CCOc2c(cnn2C)-c2nccc(n2)Nc2cc(c(C(=O)NCCCC(F)(F)F)cn2)N1` [Example 88, (S)-1^1,6-dimethyl-N-(4,4,4-trifluorobutyl)-1^1H-9-oxa-3,5-diaza-2(2,4)-pyrimidina-4(2,4)-pyridina-1(4,5)-pyrazolacyclo-nonaphane-4^5-carboxamide]: the GI50 is under 500 nM.

On to `C[C@H]1CCOc2c(cnn2C)-c2nccc(n2)Nc2cc(c(C(=O)NCCC(F)(F)F)cn2)N1` [Example 89, (S)-1^1,6-dimethyl-N-(3,3,3-trifluoropropyl)-1^1H-9-oxa-3,5-diaza-2(2,4)-pyrimidina-4(2,4)-pyridina-1(4,5)-pyrazolacyclo-nonaphane-4^5-carboxamide], for which the GI50 is under 500 nM.

Consider `CO[C@H]1CCN(c2nccc(Nc3cc(NC(C)C)c(C(=O)NCC4CCCC4)cn3)n2)C[C@H]1F` [Example 91, N-(cyclopentylmethyl)-6-((2-(cis-3-fluoro-4-methoxypiperidin-1-yl)pyrimidin-4-yl)amino)-4-(isopropylamino)nico-tinamide], for which the GI50 was in the range of 500 to 5000 nM.

In the case of `CC(C)Nc1nc(Nc2ccnc(-c3cnn(S(=O)(=O)C4CC4)c3)c2)ncc1C(=O)NCCCC(F)(F)F` [Example 92, 2-((2-(1-(cyclopropylsulfonyl)-1H-pyrazol-4-yl)pyridin-4-yl)amino)-4-(isopropylamino)-N-(4,4,4-trifluorobutyl)pyrimi-din-5-carboxamide], the GI50 lay in the range of 500 to 5000 nM.

Regarding `CO[C@H]1CCN(c2cc(Nc3ncc(C(=O)NCCCC(F)(F)F)c(NC(C)C)n3)ccn2)C[C@H]1F` [Example 93, 2-((2-((3R,4S)-3-fluoro-4-methoxypiperidin-1-yl)pyridin-4-yl)amino)-4-(isopropylamino)-N-(4,4,4-trifluorobutyl)pyrimi-dine-5-carboxamide], the GI50 was in the range of 500 to 5000 nM.

Take `CO[C@H]1CCN(c2nccc(Nc3cc(NC(C)C)c(C(=O)NCCS(C)(=O)=O)cn3)n2)C[C@H]1F` [Example 94, 6-((2-((3R,4S)-3-fluoro-4-methoxypiperidin-1-yl)pyrimidin-4-yl)amino)-4-(isopropylamino)-N-(2-(methylsulfonyl)ethyl) nicotinamide]: the GI50 was 500 to 5000 nM.

On to `CO[C@H]1CCN(c2cc(Nc3ncc(C(=O)NCCS(C)(=O)=O)c(NC(C)C)n3)ccn2)C[C@H]1F` [Example 95, 2-((2-((3R,4S)-3-fluoro-4-methoxypiperidin-1-yl)pyridin-4-yl)amino)-4-(isopropylamino)-N-(2-(methylsulfonyl)ethyl) pyrimidin-5-carboxamide], for which the GI50 is 500 to 5000 nM.

For the compound `C[C@H]1CCOc2c(cnn2C)-c2nccc(n2)Nc2cc(c(C(=O)NCC(F)(F)C(F)(F)F)cn2)N1` [Example 103, (S)-1^1,6-dimethyl-N-(2,2,3,3,3-pentafluoropropyl)-1^1H-9-oxa-3,5-diaza-2(2,4)-pyrimidina-4(2,4)-pyridina-1(4.,5)-pyrazolacyclo-nonaphane-4^5-carboxamide], the GI50 was under 500 nM.

With `C[C@H]1CCOc2c(cnn2C)-c2nccc(n2)Nc2cc(c(C(=O)Nc3cc(N4CCN(C)CC4)cc(N(C)S(C)(=O)=O)c3)cn2)N1` [Example 114, (S)-1^1,6-dimethyl-N-(3-(N-methyl-methylsulfonami-do)-5-(4-methylpiperazin-1-yl)phenyl)-1^1H-9-oxa-3,5-diaza-2(2,4)-pyrimidina-4(2,4)-pyridina-1(4,5)-pyrazolacyclo-nonaphane-4^5-carboxamide], the GI50 is under 500 nM.

For the compound `CC(C)S(=O)(=O)CC1CN(C(=O)c2cnc3cc2N[C@@H](C)CCOc2c(cnn2C)-c2nccc(n2)N3)C1` [Example 121, (S)-(1^1,6-methyl-1^1H-9-oxa-3,5-diaza-2(2,4)-pyrimidina-4(2,4)-pyridina-1(4,5)-pyrazolacyclo-nonaphane-4^5-yl)(3-((isopropylsulfonyl)methyl)azetidin-1-yl)methanone], the GI50 was under 500 nM.

With `C[C@H]1CCOc2c(cnn2C)-c2cc(ccn2)Nc2cc(c(C(=O)NCCC(F)(F)F)cn2)N1` [Example 123, (S)-1^1,6-dimethyl-N-(3,3,3-trifluoropropyl)-1^1H-9-oxa-3,5-diaza-2,4(2,4)-dipyridina-1(4,5)-pyrazolacyclo-nonaphane-4^5-carboxamide], the GI50 was under 500 nM.

For the compound `Cc1cc2cc(n1)-c1cnn(C)c1OCC[C@H](C)Nc1cc(ncc1C(=O)NCCC(F)(F)F)N2` [Example 124, (S)-1^1,2^6,6-trimethyl-N-(3,3,3-trifluoropropyl)-1^1H-9-oxa-3,5-diaza-2,4(2,4)-dipyridina-1(4,5)-pyrazolacyclo-nonaphane-4^5-carboxamide], the GI50 was in the range of 500 to 5000 nM.

With `C[C@H]1CCOc2c(cnn2C)-c2nccc(n2)Nc2cc(c(C(=O)Nc3cccc(CS(C)(=O)=O)c3)cn2)N1` [Example 125, (S)-1^1,6-dimethyl-N-(3-((methyl-sulfonyl)meth-yl)phenyl)-1^1H-9-oxa-3,5-diaza-2(2,4)-pyrimidina-4(2,4)-pyridina-1(4,5)-pyrazolacyclo-nonaphane-4^5-carboxamide], the GI50 fell in the range of 500 to 5000 nM.

Consider `CC(C)Nc1cc(Nc2ccnc(-c3cnn(S(=O)(=O)C4CC4)c3)n2)ncc1C(=O)N1CC(CS(=O)(=O)C(C)C)C1` [Example 130, (6-((2-(1-(cyclopropylsulfonyl)-1H-pyrazol-4-yl)pyrimidin-4-yl)amino)-4-(isopropylamino)pyri-din-3-yl)(3-((isopropylsulfonyl)methyl)azetidin-1-yl)methanone], for which the GI50 is under 500 nM.

Consider `CO[C@@H]1CCN(c2nccc(Nc3cc(NC(C)C)c(C(=O)N4CC(CS(=O)(=O)C(C)C)C4)cn3)n2)C[C@@H]1F` [Example 131, (6-((2-(cis-3-fluoro-4-methoxypiperidin-1-yl)pyrimidin-4-yl)amino)-4-(isopropylamino)pyri-din-3-yl)(3-((isopropylsulfonyl)methyl)azetidin-1-yl)methanone], for which the GI50 lay in the range of 500 to 5000 nM.

As to `CC(C)Nc1cc(Nc2ccnc(-c3cnn(S(=O)(=O)C4CC4)c3)n2)ncc1C(=O)NC[C@@H](F)C(C)(C)O` [Example 132, (R)-6-((2-(1-(cyclopropylsulfonyl)-1H-pyrazol-4-yl)pyrimidin-4-yl)amino)-N-(2-fluoro-3-hydroxy-3-methylbutyl)-4-(isopropylamino)nico-tinamide], the GI50 was under 500 nM.

Turning to `CC(C)Nc1cc(Nc2ccnc(-c3ccc(O)c(C=O)c3)n2)ncc1C(=O)N1C[C@H](CS(C)(=O)=O)[C@H]1C` [Example 133, 2-hydroxy-5-(4-((4-(isopropylamino)-5-((2R,3S)-2-methyl-3-((methyl-sulfonyl)meth-yl)azetidine-1-carbonyl)pyridin-2-yl)amino)pyrimidin-2-yl)benzaldehyde], the GI50 was 500 to 5000 nM.

Turning to `CC(=O)c1cc(-c2nccc(Nc3cc(NC(C)C)c(C(=O)N4C[C@H](CS(C)(=O)=O)[C@H]4C)cn3)n2)ccc1O` [Example 134, 1-(2-hydroxy-5-(4-((4-(isopropylamino)-5-((2R,3S)-2-methyl-3-((methylsulfonyl)meth-yl)azetidine-1-carbonyl)pyridin-2-yl)amino)pyrimidin-2-yl)phenyl)ethan-1-one], the GI50 lay within 500 to 5000 nM.
